Laboratory results as given in US20190292559A1, “NUCLEOTIDE SEQUENCE FOR IMPROVING RESISTANCE AGAINST PLANT PATHOGENS” (CONSEJO SUPERIOR DE INVESTIGACIONES CIENTIFICAS (CSIS), priority 2016, published 2019).

Legend:
[1] = target: T1, JAZ2 protein (Arabidopsis thaliana, UniProt O04197+Q9S7M2); assay: JAZ2 protein stability (35S JAZ2-GUS staining); format: cell-based; conditions: JAZ2-GUS transgenic seedlings, 3 h
T1 construct: expressed in transfected cells
T1 sequence (Q9S7M2 1-249): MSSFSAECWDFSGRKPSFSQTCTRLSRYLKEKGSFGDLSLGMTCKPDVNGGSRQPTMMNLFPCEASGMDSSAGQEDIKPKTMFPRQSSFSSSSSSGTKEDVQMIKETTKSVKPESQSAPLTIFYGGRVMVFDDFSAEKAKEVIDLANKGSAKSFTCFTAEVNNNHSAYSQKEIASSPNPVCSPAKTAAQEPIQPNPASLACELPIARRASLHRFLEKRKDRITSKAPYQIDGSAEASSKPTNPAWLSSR
T1 sequence (O04197 1-592): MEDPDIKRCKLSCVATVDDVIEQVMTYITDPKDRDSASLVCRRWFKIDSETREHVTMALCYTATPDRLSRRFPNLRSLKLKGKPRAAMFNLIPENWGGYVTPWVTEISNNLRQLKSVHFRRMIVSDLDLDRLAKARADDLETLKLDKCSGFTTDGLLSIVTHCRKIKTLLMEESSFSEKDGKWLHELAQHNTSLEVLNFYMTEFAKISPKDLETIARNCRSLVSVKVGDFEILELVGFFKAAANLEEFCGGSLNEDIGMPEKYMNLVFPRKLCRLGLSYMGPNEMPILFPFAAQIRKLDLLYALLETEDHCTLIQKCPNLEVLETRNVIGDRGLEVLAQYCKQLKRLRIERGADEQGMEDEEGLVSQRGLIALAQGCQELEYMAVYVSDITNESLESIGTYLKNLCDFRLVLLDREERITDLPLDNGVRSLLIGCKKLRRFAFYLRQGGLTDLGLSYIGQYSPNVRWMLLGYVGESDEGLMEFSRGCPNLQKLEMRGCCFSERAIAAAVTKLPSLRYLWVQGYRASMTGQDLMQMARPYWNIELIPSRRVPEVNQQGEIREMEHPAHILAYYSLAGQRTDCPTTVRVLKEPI
T1 sequence (Q39255 1-160 partner): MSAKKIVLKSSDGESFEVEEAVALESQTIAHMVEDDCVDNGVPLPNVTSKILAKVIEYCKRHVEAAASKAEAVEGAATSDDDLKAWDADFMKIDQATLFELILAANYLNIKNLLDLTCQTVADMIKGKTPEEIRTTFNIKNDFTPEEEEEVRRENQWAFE
Protocol: For JAZ promoter:GUS expression experiments, five to seven days-old seedlings were treated with mock solution or 50 μM JA for 2 h and GUS stained as previously described (Fernandez-Calvo, P. et al. Plant Cell. 2011; 23(2): 701-715). For JAZ2 protein stability experiments, seven to nine days-old seedlings were treated with mock solution or 50 nM COR for 3 h. Then, samples were placed in staining solution containing 50 mM phosphate buffer, pH 7, 0.1% (v/v) Triton X-100 (Sigma-Aldrich), 2 mM 5-bromo-4-chloro-3-indolyl b-D glucuronic acid (X-Gluc, Glycosynth), 1 mM potassium-ferrocyanide (Sigma-Aldrich), and 1 mM potassium-ferricyanide (Sigma-Aldrich) and incubated at 37° C. overnight. After staining, the tissue was soaked several times in 75% ethanol and kept in 5% glycerol until being photographed with a Leica DMR UV/VIS microscope.

[2] = system: stomata guard cells; assay: Stomatal aperture measurements (MAMP-induced closure, COR-induced reopening); format: cell-based, Arabidopsis; conditions: leaves incubated with MAMPs and 2 μM COR simultaneously
Protocol: Whole leaves from 4- to 6-week-old Arabidopsis plants were collected and exposed to white light for 1.30 hours while floating in a solution containing 50 mM KCl, 10 μm CaCl2, and 10 mm MES-KOH pH=6.1 (opening stomata buffer) with moderate shaking (50 rpm) to induce homogenous stomatal aperture among all Arabidopsis lines to compare. To do the MAMP-induced closure assays, the previous solution was removed and whole leaves were immersed in opening stomata buffer containing Pto DC3000 MAMP extracts at OD600=1,5 (7,5×10^8 cfu/ml), 2 μM of coronatine or a mock solution. Samples were further incubated under the same previous conditions for 4-5 hours. Then, leaves were rapidly peeled and abaxial epidermal peels were placed on cover slips and observed with a microscope (Leica DMR). Stomatal aperture (width/length) was measured using ImageJ software. Error bars represent standard error of the mean (SEM) (n=20). Stomatal experiments were repeated at least three independent times and representative results are shown.
We next analyzed the ability of JAZ2-3 to close stomata upon microbial perception and reopen it in the presence of COR. […] Typically, Pto DC3000 MAMPs were used at optical density at 600 nm OD600=1,5 (7,5×10^8 cfu/ml) for incubation with leaves (Stomatal Aperture Measurements) or Arabidopsis seedlings (Quantitative RT-PCR). […]

[3] = system: JAZ1 promoter; assay: pJAZ1:GUS promoter expression (GUS staining); format: cell-based, Arabidopsis; conditions: 50 μM JA, 2 h
Text: (§1) Transgenic Arabidopsis lines expressing pJAZ:GUS promoter fusions were obtained by cloning the corresponding pJAZ PCR products (pJAZ1 fw cacc[…] [SEQ ID NO: 29]; pJAZ1 rev […] [SEQ ID NO: 30]; pJAZ2 fw cacc[…] [SEQ ID NO: 31]; pJAZ2 rev […] [SEQ ID NO: 32]; pJAZ3 fw cacc[…] [SEQ ID NO: 33]; pJAZ3 rev […] [SEQ ID NO: 34]) into the pENTR™/D-TOPO® system (Invitrogen) and then transferring them to pGWB3. Agrobacterium strain GV3101, containing these constructs, was used to transform Col-0 plants by floral dipping (Clough, S. J. and Bent, A. F. Plant J. 1998, 16(6): 735-743). Several transgenic lines were checked for Kanamycin and Hygromycin resistance and lines carrying one insertion were driven to homozygosis and used for further analysis. pJAZ2:GUS in coi1-30 background was generated by crossing the corresponding parental single homozygous lines. Arabidopsis lines expressing pMYC3:GUS and pMYC4:GUS promoter fusions, were previously reported (Fernandez-Calvo, P. et al. Plant Cell. 2011, 23(2): 701-715). The lines JAZ2-3 (RIKEN_ 13-5433-1) and JAZ2ΔJas (GABI_169B06) were obtained from the Nottingham Arabidopsis Stock Centre. The line JAZ1ΔJas (SEQ ID NO: 61) was obtained from an Arabidopsis activation tagging population (Weigel, D. et al. Plant Physiol. 2000, 122(4): 1003-1013). […]

[4] = system: JAZ2 promoter; assay: pJAZ2:GUS promoter expression (GUS staining); format: cell-based, Arabidopsis; conditions: 50 μM JA, 2 h, young seedlings
Text: as §1

Row | Compound | COR concentration inducing rapid degradation of JAZ2 protein at guard cells [1] | COR-induced stomata reopening [2] | JAZ1 expression (pJAZ1:GUS) after JA treatment [3] | JAZ2 expression (pJAZ2:GUS) after JA treatment [4]
1 | CC[C@H]1C=C(C(=O)N[C@@]2(C(=O)O)C[C@@H]2CC)[C@H]2CCC(=O)[C@H]2C1 [COR, coronatine] | ≤ 50 nM | triggered COR-induced stomata reopening in JAZ2-3 and WT plants, but not in coi1-30 |  | 
2 | CC/C=C\C[C@H]1C(=O)CC[C@@H]1CC(=O)O [JA, jasmonic acid] |  |  | strongly induced JAZ1 in roots and mesophyll cells | induced it in roots and mesophyll cells of young seedlings
